In US20030175254A1, “Method of obtaining purified enterochromaffin cells and methods of using same” (priority 2001, published 2003):

System: Intestinal EC Cells
Test: Serotonin release from cultured rat intestinal (ileal) EC cell fractions, serotonin EIA
Format: cell-based
Settings: 60 minutes, 100,000 cells cultured overnight
Description: Male Sprague-Dawley rats (n=5 per preparation) were euthanized and the ileum was completely removed and divided into 2-3 pieces. Following end-ligation, these pieces of intestine were everted and filled with an enzyme mix of Pronase E (0.7 mg/mL), and collagenase (0.25 mg/ml). Cells were separated from the muscularis by alternative switching between a calcium containing Respiration medium and a 2 mM EDTA-containing digestive medium (with shaking). A total of 1-2×10^8 cells were obtained from each preparation. Five fractions of cells (F1-F5) were separated by counterflow-elutriation using flow rates of 25 ml/min at 2,500 rpm. Cells (100,000) were cultured overnight in Dulbecco's modified Eagles medium (DMEM)-F12 medium supplemented with 2 mg/ml bovine serum albumin, 5% fetal bovine serum, 5 mg/l gentamicin, 5 mg/l insulin, 5 mg/l transferring, 5 μg/l sodium selenite, and 1 nM hydrocortisone). After removal of the medium, fresh culture medium containing agonists (PACAP, galanin, forskolin, each at 10 nM) was added to the cells for 60 minutes. This medium was removed and the serotonin measured using an serotonin EIA kit and expressed as ng serotonin/100,000 cells/60 min.

pituitary adenylate cyclase stimulating peptide [PACAP]
serotonin release versus controls (10^-8 M, negatively regulated serotonin release): 0.88±0.06

C=C[C@@]1(C)CC(=O)[C@]2(O)[C@@]3(C)[C@@H](O)CCC(C)(C)[C@@H]3[C@H](O)[C@H](OC(C)=O)[C@@]2(C)O1 [Forskolin]
serotonin release, fold versus controls (agonist 10 nM, positive control, p<0.05): 2.1±0.14 fold
